According to patent publication US20230144901A1, “SORTILIN ANTAGONISTS FOR USE IN THE TREATMENT OF DIABETIC RETINOPATHY” (Insusense ApS, priority 2020, published 2023):

Columns and labels:
[1] = biological target: T1, hSortilin (Homo sapiens, UniProt Q99523); test: Neurotensin (NTS) scintillation proximity assay (SPA): displacement of 3H-neurotensin binding to hSortilin; details: for IC50: 150 nM 6his-Sortilin, 5 nM [3H]-Neurotensin, average of at least 4 determinations; for inhibition at 50 µM: read-out: % inhibition at 50 μM, NTS SPA, compound at 50 μM (footnote *)
T1 sequence (Q99523 78-831): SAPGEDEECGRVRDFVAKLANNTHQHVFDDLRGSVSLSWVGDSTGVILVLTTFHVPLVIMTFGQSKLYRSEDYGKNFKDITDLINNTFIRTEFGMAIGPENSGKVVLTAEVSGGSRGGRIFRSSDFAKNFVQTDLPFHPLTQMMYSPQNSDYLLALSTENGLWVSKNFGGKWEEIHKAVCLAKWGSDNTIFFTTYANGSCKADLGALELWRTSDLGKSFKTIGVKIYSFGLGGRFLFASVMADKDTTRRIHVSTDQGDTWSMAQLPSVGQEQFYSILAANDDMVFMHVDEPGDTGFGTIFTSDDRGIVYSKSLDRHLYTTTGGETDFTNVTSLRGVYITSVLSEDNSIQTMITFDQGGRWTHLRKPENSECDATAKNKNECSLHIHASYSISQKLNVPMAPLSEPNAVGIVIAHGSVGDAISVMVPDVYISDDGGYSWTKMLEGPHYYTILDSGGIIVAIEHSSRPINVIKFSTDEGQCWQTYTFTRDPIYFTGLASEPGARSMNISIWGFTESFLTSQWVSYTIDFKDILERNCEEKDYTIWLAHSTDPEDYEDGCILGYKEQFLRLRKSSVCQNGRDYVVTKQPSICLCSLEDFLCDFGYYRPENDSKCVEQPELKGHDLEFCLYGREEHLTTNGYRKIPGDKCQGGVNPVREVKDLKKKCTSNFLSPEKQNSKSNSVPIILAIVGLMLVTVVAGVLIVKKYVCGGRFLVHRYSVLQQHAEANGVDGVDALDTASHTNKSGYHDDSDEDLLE

[2] = system: light sensitive cells of the retina in mice; test: Diabetic mouse model: flash electroretinography (fERG) before and 8 weeks after STZ induction of diabetes; assay type: in vivo
Procedure: Flash electroretinography (fERG) was used to measure the electrical response of the light sensitive cells of the retina in mice both prior to streptozocin (STZ) induction of diabetes (baseline) and 8 weeks after induction. Mice were exposed to increasing intensities of light flashes and the resulting electrical responses, measured in amplitude, were recorded. The skilled person will recognise that a cell with a higher measured amplitude is indicative of a healthy cell whilst cells with lower amplitudes is indicative of a damaged cell which is no longer functioning optimally. In the experimental group, the mice were administered with a polyclonal anti-sortilin antibody (2 ul of a 1 μg/μl solution in Dulbecco's Phosphate buffered saline) by intravitrial administration whereas in the control group the mice were administered with the vehicle only (Dulbecco's Phosphate buffered saline). All other variables, such as food intake, diet, exercise levels and exposure to environmental enrichment were kept the same between the two groups.

`Cc1cccc(NC(=O)c2ccc(Br)cc2C(=O)O)n1` [Example 1, 5-bromo-2-[(6-methylpyridin-2-yl)carbamoyl]benzoic acid] was tested, and the IC50 [1] was 0.71 µM.
`Cc1cccc(NC(=O)c2cc(Br)ccc2C(=O)O)n1` [Example 2, 4-bromo-2-[(6-methylpyridin-2-yl)carbamoyl]benzoic acid] was tested, and the IC50 [1] was 12 µM.
In the case of `Cc1cccc(NC(=O)c2ccccc2C(=O)O)n1` [Example 3, 2-[(6-methylpyridin-2-yl)carbamoyl]benzoic acid], the inhibition at 50 µM [1] is reported as 15%.
Compound `Cc1cccc(NC(=O)c2cccc(C)c2C(=O)O)n1` [Example 4, 2-methyl-6-[(6-methylpyridin-2-yl)carbamoyl]benzoic acid] has an inhibition at 50 µM [1] of 5%.
In the case of `Cc1cccc(NC(=O)c2ccc(C(F)(F)F)cc2C(=O)O)n1` [Example 8, 2-[(6-methylpyridin-2-yl)carbamoyl]-5-(trifluoromethyl)benzoic acid], the “reduction in the fERG response (a wave and b wave) 8 weeks after induction compared to the baseline” value ([2]; intravitreal 2 μl of a 1 μg/μl solution, versus vehicle control group) is reported as “smaller for the experimental group compared to the control group” and the “protective effect on retinal cells compared with the polyclonal antibody of the first study” value ([2]; intravitreal, fERG 8 weeks after induction) is reported as “greater than that of the polyclonal antibody”.
`Cc1cccc(NC(=O)c2ccc([N+](=O)[O-])cc2C(=O)O)n1` [Example 9, 2-[(6-methylpyridin-2-yl)carbamoyl]-5-nitrobenzoic acid] showed an IC50 [1] of 1.7 µM.
Work on `Cc1cccc(NC(=O)c2ccc(-c3ccccc3)cc2C(=O)O)n1` [Example 10, 4-[(6-methylpyridin-2-yl)carbamoyl]-[1,1′-biphenyl]-3-carboxylic acid] yielded an inhibition at 50 µM [1] of 2%.
`Cc1cccc(NC(=O)c2cc(Cl)ccc2C(=O)O)n1` [Example 11, 4-chloro-2-[(6-methylpyridin-2-yl)carbamoyl]benzoic acid] was tested, and the inhibition at 50 µM [1] was 69%.
`Cc1ccc(C(=O)O)c(C(=O)Nc2cccc(C)n2)c1` [Example 12, 4-methyl-2-[(6-methylpyridin-2-yl)carbamoyl]benzoic acid] showed an inhibition at 50 µM [1] of 57%.
For `Cc1cccc(NC(=O)c2c(C)cccc2C(=O)O)n1` [Example 16, 3-methyl-2-[(6-methylpyridin-2-yl)carbamoyl]benzoic acid], the inhibition at 50 µM [1] was 43%.
Compound `CCC(C)NC(=O)c1ccc(Br)cc1C(=O)O` (stereo not drawn) [Example 17, 5-bromo-2-[(butan-2-yl)carbamoyl]benzoic acid] has an inhibition at 50 µM [1] of 30%.
For `CC(C)NC(=O)c1ccc(Br)cc1C(=O)O` [Example 18, 5-bromo-2-[(propan-2-yl)carbamoyl]benzoic acid], the inhibition at 50 µM [1] was 35%.
`O=C(O)c1cc(Br)ccc1C(=O)Nc1ccccc1` [Example 19, 5-bromo-2-(phenylcarbamoyl)benzoic acid] was tested, and the inhibition at 50 µM [1] was 69%.
For `Cc1cccc(NC(=O)c2ccc(Br)cc2C(=O)O)c1` [Example 20, 5-bromo-2-[(3-methylphenyl)carbamoyl]benzoic acid], the IC50 [1] was 5.2 µM.
Work on `Cc1cccnc1NC(=O)c1ccc(Br)cc1C(=O)O` [Example 24, 5-bromo-2-[(3-methylpyridin-2-yl)carbamoyl]benzoic acid] yielded an inhibition at 50 µM [1] of 64%.
For `Cc1ccc(NC(=O)c2ccc(Br)cc2C(=O)O)cn1` [Example 25, 5-bromo-2-[(6-methylpyridin-3-yl)carbamoyl]benzoic acid], the inhibition at 50 µM [1] was 70%.
With `O=C(O)c1cc(C(F)(F)F)ccc1C(=O)Nc1ccc2c(n1)CCCC2` [Example 30, 2-[(5,6,7,8-tetrahydroquinolin-2-yl)carbamoyl]-5-(trifluoromethyl)benzoic acid] the IC50 [1] was 0.1 µM.
